Data reported in PubChem BioAssay AID256 (DTP/NCI, 2004).
Where “and” joins values, the source holds several entries; their conditions need not be identical. Identical values can stand only once. Inconclusive results and toxic doses are left out. Rule for the calls: active = survival T/C of 150% or more; inactive = T/C below 125% in these data.

Test system: CD2F1 mice, L1210 leukemia ip, survival T/C
Test: NCI In Vivo Anticancer Drug Screen. Data for tumor model L1210 Leukemia (intraperitoneal) in CD2F1 (CDF1) mice
Conditions: higher = longer survival
Method in brief: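 Tumor-bearing mice (transplanted tumor) were split into treated and vehicle control groups, and the measured endpoint of each treated group was divided by that of its vehicle controls.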

Measured: T/C

COc1cccc2c1C(=O)c1c(O)c3c(c(O)c1C2=O)C[C@@](O)(C(C)=O)C[C@@H]3OC1CC(N)C(O)C(C)O1 (stereo not given in full)
inactive: endpoint: mean survival time, dose: 0.06 mg/kg/injection, schedule: Q01DX009 (ip), vehicle: saline 103 % of control | endpoint: mean survival time, dose: 0.13 mg/kg/injection, schedule: Q01DX009 (ip), vehicle: saline 103 % of control | endpoint: mean survival time, dose: 0.2 mg/kg/injection, schedule: Q01DX009 (ip), vehicle: saline 105 % of control | endpoint: mean survival time, dose: 0.2 mg/kg/injection, schedule: Q01DX009 (ip), vehicle: water 100 % of control and 103 % of control and 108 % of control | endpoint: mean survival time, dose: 0.25 mg/kg/injection, schedule: Q01DX005 (ip), vehicle: water 101 % of control | endpoint: mean survival time, dose: 0.25 mg/kg/injection, schedule: Q01DX009 (ip), vehicle: saline 113 % of control and 120 % of control and 105 % of control | endpoint: mean survival time, dose: 0.39 mg/kg/injection, schedule: Q01DX009 (ip), vehicle: saline 119 % of control and 106 % of control | endpoint: mean survival time, dose: 0.39 mg/kg/injection, schedule: Q01DX009 (ip), vehicle: water 101 % of control and 110 % of control and 112 % of control | endpoint: mean survival time, dose: 0.5 mg/kg/injection, schedule: Q01DX005 (ip), vehicle: water 117 % of control and 108 % of control and 110 % of control | endpoint: mean survival time, dose: 0.5 mg/kg/injection, schedule: Q04DX003 (ip), vehicle: water 116 % of control and 98 % of control | endpoint: mean survival time, dose: 0.78 mg/kg/injection, schedule: Q01DX009 (ip), vehicle: saline 116 % of control | endpoint: mean survival time, dose: 0.78 mg/kg/injection, schedule: Q01DX009 (ip), vehicle: water 117 % of control and 120 % of control and 103 % of control | endpoint: mean survival time, dose: 1.0 mg/kg/injection, schedule: Q01DX005 (ip), vehicle: water 118 % of control and 112 % of control | endpoint: mean survival time, dose: 1.0 mg/kg/injection, schedule: Q03DX003 (ip), vehicle: saline 119 % of control | endpoint: mean survival time, dose: 1.0 mg/kg/injection, schedule: Q04DX003 (ip), vehicle: water 105 % of control | endpoint: mean survival time, dose: 1.08 mg/kg/injection, schedule: Q04DX003 (ip), vehicle: saline 120 % of control | endpoint: mean survival time, dose: 1.25 mg/kg/injection, schedule: Q07DX Z (oral), vehicle: clinical formulation 97 % of control | endpoint: mean survival time, dose: 1.25 mg/kg/injection, schedule: Q#B X Z (oral), vehicle: clinical formulation 102 % of control | endpoint: mean survival time, dose: 1.56 mg/kg/injection, schedule: Q01DX009 (ip), vehicle: saline 117 % of control | endpoint: mean survival time, dose: 1.56 mg/kg/injection, schedule: Q01DX009 (ip), vehicle: water 121 % of control and 106 % of control | endpoint: mean survival time, dose: 1.68 mg/kg/injection, schedule: Q01DX001 (ip), vehicle: water 124 % of control | endpoint: mean survival time, dose: 1.8 mg/kg/injection, schedule: Q04DX003 (ip), vehicle: saline 120 % of control | endpoint: mean survival time, dose: 2.0 mg/kg/injection, schedule: Q01DX005 (ip), vehicle: water 121 % of control and 124 % of control | endpoint: mean survival time, dose: 2.0 mg/kg/injection, schedule: Q03DX003 (ip), vehicle: saline 122 % of control | endpoint: mean survival time, dose: 2.0 mg/kg/injection, schedule: Q04DX003 (ip), vehicle: water 123 % of control and 102 % of control | endpoint: mean survival time, dose: 2.5 mg/kg/injection, schedule: Q01DX001 (ip), vehicle: water 118 % of control and 123 % of control and 112 % of control | endpoint: mean survival time, dose: 2.5 mg/kg/injection, schedule: Q07DX Z (oral), vehicle: clinical formulation 97 % of control | endpoint: mean survival time, dose: 2.5 mg/kg/injection, schedule: Q#B X Z (oral), vehicle: clinical formulation 94 % of control | endpoint: mean survival time, dose: 3.0 mg/kg/injection, schedule: Q01DX009 (ip), vehicle: saline 117 % of control | endpoint: mean survival time, dose: 3.0 mg/kg/injection, schedule: Q04DX003 (ip), vehicle: saline 115 % of control | endpoint: mean survival time, dose: 3.13 mg/kg/injection, schedule: Q01DX009 (ip), vehicle: water 117 % of control and 96 % of control | endpoint: mean survival time, dose: 4.0 mg/kg/injection, schedule: Q01DX005 (ip), vehicle: water 120 % of control and 105 % of control | endpoint: mean survival time, dose: 4.0 mg/kg/injection, schedule: Q01DX007 (ip), vehicle: saline 110 % of control | endpoint: mean survival time, dose: 4.0 mg/kg/injection, schedule: Q03DX003 (ip), vehicle: saline 116 % of control | endpoint: mean survival time, dose: 4.0 mg/kg/injection, schedule: Q04DX003 (ip), vehicle: water 100 % of control | endpoint: mean survival time, dose: 4.67 mg/kg/injection, schedule: Q01DX009 (ip), vehicle: water 108 % of control | endpoint: mean survival time, dose: 5.0 mg/kg/injection, schedule: Q01DX001 (ip), vehicle: water 120 % of control and 104 % of control | endpoint: mean survival time, dose: 5.0 mg/kg/injection, schedule: Q04DX003 (ip), vehicle: saline 120 % of control | endpoint: mean survival time, dose: 5.0 mg/kg/injection, schedule: Q07DX Z (oral), vehicle: clinical formulation 97 % of control | endpoint: mean survival time, dose: 5.0 mg/kg/injection, schedule: Q#B X Z (oral), vehicle: clinical formulation 97 % of control | endpoint: mean survival time, dose: 6.25 mg/kg/injection, schedule: Q01DX009 (ip), vehicle: saline 97 % of control | endpoint: mean survival time, dose: 8.0 mg/kg/injection, schedule: Q01DX001 (ip), vehicle: water 109 % of control | endpoint: mean survival time, dose: 8.0 mg/kg/injection, schedule: Q01DX009 (ip), vehicle: saline 100 % of control | endpoint: mean survival time, dose: 8.0 mg/kg/injection, schedule: Q04DX003 (ip), vehicle: saline 119 % of control | endpoint: mean survival time, dose: 8.0 mg/kg/injection, schedule: Q04DX003 (ip), vehicle: water 123 % of control | endpoint: mean survival time, dose: 10.0 mg/kg/injection, schedule: Q01DX001 (ip), vehicle: water 118 % of control and 112 % of control | endpoint: mean survival time, dose: 10.0 mg/kg/injection, schedule: Q07DX Z (oral), vehicle: clinical formulation 102 % of control | endpoint: mean survival time, dose: 10.0 mg/kg/injection, schedule: Q#B X Z (oral), vehicle: clinical formulation 108 % of control | endpoint: mean survival time, dose: 20.0 mg/kg/injection, schedule: Q01DX001 (ip), vehicle: water 89 % of control and 96 % of control | endpoint: mean survival time, dose: 20.0 mg/kg/injection, schedule: Q07DX Z (oral), vehicle: clinical formulation 100 % of control | endpoint: mean survival time, dose: 20.0 mg/kg/injection, schedule: Q#B X Z (oral), vehicle: clinical formulation 94 % of control | endpoint: mean survival time, dose: 40.0 mg/kg/injection, schedule: Q01DX001 (ip), vehicle: saline 62 % of control | endpoint: mean survival time, dose: 40.0 mg/kg/injection, schedule: Q07DX Z (oral), vehicle: clinical formulation 103 % of control | endpoint: mean survival time, dose: 40.0 mg/kg/injection, schedule: Q#B X Z (oral), vehicle: clinical formulation 103 % of control | endpoint: mean survival time, dose: 39.0 micrograms/kg/injection, schedule: Q01DX010 (oral), vehicle: saline 102 % of control | endpoint: mean survival time, dose: 78.0 micrograms/kg/injection, schedule: Q01DX010 (oral), vehicle: saline 102 % of control | endpoint: mean survival time, dose: 156.0 micrograms/kg/injection, schedule: Q01DX010 (oral), vehicle: saline 98 % of control | endpoint: mean survival time, dose: 313.0 micrograms/kg/injection, schedule: Q01DX010 (oral), vehicle: saline 102 % of control | endpoint: mean survival time, dose: 625.0 micrograms/kg/injection, schedule: Q01DX010 (oral), vehicle: saline 104 % of control | endpoint: mean survival time, dose: 1250.0 micrograms/kg/injection, schedule: Q01DX010 (oral), vehicle: saline 101 % of control | endpoint: median survival time, dose: 0.25 mg/kg/injection, schedule: Q01DX005 (iv), vehicle: water 112 % of control | endpoint: median survival time, dose: 0.5 mg/kg/injection, schedule: Q01DX005 (iv), vehicle: water 100 % of control | endpoint: median survival time, dose: 0.5 mg/kg/injection, schedule: Q04DX003 (ip), vehicle: water 99 % of control | endpoint: median survival time, dose: 1.0 mg/kg/injection, schedule: Q01DX005 (iv), vehicle: water 106 % of control | endpoint: median survival time, dose: 1.0 mg/kg/injection, schedule: Q04DX003 (ip), vehicle: water 99 % of control | endpoint: median survival time, dose: 2.0 mg/kg/injection, schedule: Q01DX005 (iv), vehicle: water 112 % of control | endpoint: median survival time, dose: 2.0 mg/kg/injection, schedule: Q04DX003 (ip), vehicle: water 100 % of control | endpoint: median survival time, dose: 4.0 mg/kg/injection, schedule: Q04DX003 (ip), vehicle: water 107 % of control | endpoint: median survival time, dose: 16.0 mg/kg/injection, schedule: Q04DX003 (ip), vehicle: water 109 % of control

CC(C)C1(C)NC(=O)NC1=O (stereo not given)
inactive: endpoint: mean survival time, dose: 100.0 mg/kg/injection, schedule: Q01DX009 (ip), vehicle: saline 105 % of control | endpoint: mean survival time, dose: 200.0 mg/kg/injection, schedule: Q01DX009 (ip), vehicle: saline 94 % of control | endpoint: mean survival time, dose: 400.0 mg/kg/injection, schedule: Q01DX009 (ip), vehicle: saline 98 % of control

CC1(C)C(=O)OC(=O)C(C)(Br)C1(C)C (stereo not given)
inactive: endpoint: mean survival time, dose: 100.0 mg/kg/injection, schedule: Q01DX001 (ip), vehicle: saline with Tween-80 104 % of control | endpoint: mean survival time, dose: 200.0 mg/kg/injection, schedule: Q01DX001 (ip), vehicle: saline with Tween-80 96 % of control | endpoint: mean survival time, dose: 400.0 mg/kg/injection, schedule: Q01DX001 (ip), vehicle: saline with Tween-80 101 % of control
